Reference: US20250222146A1, “Radiopharmaceuticals Targeting Somatostatin Receptor 2 and Uses Thereof” (RayzeBio, Inc., priority 2023, published 2025)
pKi: −log10 of the molar value. Read-outs that look alike come from different tables or passages of the source. Numbered stars: 1 amine (or outer) side, 2 acyl side, 3 side chain; on linkers, the order of the positions; unused ones are H or OH. Square brackets hold non-standard residues; d marks the D form. Peptide text beside a SMILES is read from it. * marks the point of attachment. DOTA(Lu)NH(CH2)6NHCOCH2 = O=C(CN1CCN2CCN3CCN(CC1)CC(=O)[O][Lu]([O]C(=O)C2)[O]C(=O)C3)NCCCCCCNC(=O)C*; X6 = O=C(CN1CCN2CCN3CCN(CC1)CC(=O)[O][Lu]([O]C(=O)C2)[O]C(=O)C3)NCCOCCOCCOCCNC(=O)C*; X17 = O=C(CN1CCN2CCN3CCN(CC1)CC(=O)[O][Lu]([O]C(=O)C2)[O]C(=O)C3)NCCNC(=O)C*; DOTA(Lu) = O=C1CN2CCN3CCN(CC(=O)*)CCN(CC2)CC(=O)[O][Lu]([O]1)[O]C(=O)C3; X5 = O=C(CN1CCN2CCN3CCN(CC1)CC(=O)[O][Lu]([O]C(=O)C2)[O]C(=O)C3)NCC*; Ala(piperidin-4-yl) = O=C([C@H](CC1CCN([*:3])CC1)N[*:1])[*:2]; dTrp(βS-Me) = C[C@@H](c1c[nH]c2ccccc12)[C@@H](N)C(=O)O; βMeTrp(2S,3R) = C[C@H](c1c[nH]c2ccccc12)[C@H](N)C(=O)O; dTrp(5-OMe) = COc1ccc2[nH]cc(C[C@@H](N)C(=O)O)c2c1; dTrp(4-Me) = Cc1cccc2[nH]cc(C[C@@H](N)C(=O)O)c12; dTrp(5-Cl) = N[C@H](Cc1c[nH]c2ccc(Cl)cc12)C(=O)O; dTrp(5-Me) = Cc1ccc2[nH]cc(C[C@@H](N)C(=O)O)c2c1; X19 = O=C([C@H](Cc1c[nH]c2ccncc12)N[*:1])[*:2]; Phe(4-CH2NH2) = NCc1ccc(C[C@H](N)C(=O)O)cc1; X2 = O=C([C@H](CCC1CNC1)N[*:1])[*:2]; Lys(iPr) = CC(C)NCCCC[C@H](N)C(=O)O; mTyr = N[C@@H](Cc1cccc(O)c1)C(=O)O; NMehCys = CN[C@@H](CCS)C(=O)O; NMeK = CN[C@@H](CCCCN)C(=O)O; NMeS = CN[C@@H](CO)C(=O)O; Ethyl(2-NH2) = NCC*

Target: SSTR2 (Homo sapiens, UniProt P30874)
Sequence (P30874 whole entry): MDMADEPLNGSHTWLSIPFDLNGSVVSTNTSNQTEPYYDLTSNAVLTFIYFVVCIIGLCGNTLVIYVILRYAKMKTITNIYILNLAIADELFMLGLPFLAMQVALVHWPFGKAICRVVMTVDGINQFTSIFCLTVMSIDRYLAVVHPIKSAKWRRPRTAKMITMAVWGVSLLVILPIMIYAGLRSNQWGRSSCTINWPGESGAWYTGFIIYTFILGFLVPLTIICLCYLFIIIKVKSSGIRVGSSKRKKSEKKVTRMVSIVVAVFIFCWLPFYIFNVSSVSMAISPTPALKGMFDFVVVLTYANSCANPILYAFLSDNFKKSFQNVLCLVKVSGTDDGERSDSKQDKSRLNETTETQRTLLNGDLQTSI
Assay: SSTR binding affinity by radioligand binding competition assay ([125I]-Tyr11-Somatostatin, membrane extracts)
Details: radioligand competition, [125I]-Tyr11-Somatostatin 0.1 nM, membrane extracts, Ki from IC50 by Cheng Prusoff

| Compound | pKi (read-out: SSTR2 Ki) | further results |
| --- | --- | --- |
| C[C@@H](O)[C@@H]1NC(=O)[C@H](COCCN)NC(=O)[C@@H](Cc2c[nH]c3ccccc23)NC(=O)[C@H](Cc2ccc(O)cc2)NC(=O)[C@H](CCSCC(=O)NCCCCCCNC(=O)CN2CCN3CCN4CCN(CC2)CC(=O)[O][Lu]([O]C(=O)C3)[O]C(=O)C4)N(C)C(=O)[C@H](Cc2ccccc2)NC1=O [RB-0005899] (cyclo(F[NMehCys](DOTA(Lu)NH(CH2)6NHCOCH2)Y[dW]S(Ethyl(2-NH2))T)) | > 9.00 |  |
| C[C@@H](O)[C@@H]1NC(=O)[C@H](CCCCN)NC(=O)[C@H](Cc2c[nH]c3ccncc23)NC(=O)[C@H](Cc2ccc(O)cc2)NC(=O)[C@H](CCSCC(=O)NCCCCCCNC(=O)CN2CCN3CCN4CCN(CC2)CC(=O)[O][Lu]([O]C(=O)C3)[O]C(=O)C4)N(C)C(=O)[C@H](Cc2ccccc2)NC1=O [RB-0005903] (cyclo(F[NMehCys](DOTA(Lu)NH(CH2)6NHCOCH2)Y[X19]KT)) | > 9.00 |  |
| C[C@@H](O)[C@@H]1NC(=O)[C@H](CCCCN)NC(=O)[C@H](Cc2c[nH]c3ccccc23)NC(=O)[C@H](Cc2ccc(O)cc2)NC(=O)[C@H](CCSCC(=O)NCCCCCCNC(=O)CN2CCN3CCN4CCN(CC2)CC(=O)[O][Lu]([O]C(=O)C3)[O]C(=O)C4)N(C)C(=O)[C@H](Cc2ccccc2)NC1=O [RB-0005905] |  | pKi (SSTR2 Ki): > 9.00 |
| C[C@@H](O)[C@@H]1NC(=O)[C@H](CCCCN)NC(=O)[C@H](Cc2c[nH]c3ccccc23)NC(=O)[C@H](Cc2ccc(O)cc2)NC(=O)[C@H](CCSCC(=O)NCCCCCCNC(=O)CN2CCN3CCN4CCN(CC2)CC(=O)[O][Lu]([O]C(=O)C3)[O]C(=O)C4)N(C)C(=O)[C@H](Cc2ccccc2)NC1=O [RB-0005907] |  | pKi (SSTR2 Ki): 8.00 to 8.48 |
| C[C@@H](O)[C@@H]1NC(=O)[C@H](CC2CCNCC2)NC(=O)[C@@H](Cc2c[nH]c3ccccc23)NC(=O)[C@H](Cc2ccc(O)cc2)NC(=O)[C@H](CCCCNC(=O)CN2CCN3CCN4CCN(CC2)CC(=O)[O][Lu]([O]C(=O)C3)[O]C(=O)C4)N(C)C(=O)[C@H](Cc2ccc(O)cc2)NC1=O [RB-0005983] (cyclo([NMeK](DOTA(Lu))Y[dW][Ala(piperidin-4-yl)]TY)) | 8.00 to 8.48 |  |
| C[C@@H](O)[C@@H]1NC(=O)[C@H](CC2CCNCC2)NC(=O)[C@@H](Cc2c[nH]c3ccccc23)NC(=O)[C@H](Cc2ccc(O)cc2)NC(=O)[C@H](CCCCNC(=O)CN2CCN3CCN4CCN(CC2)CC(=O)[O][Lu]([O]C(=O)C3)[O]C(=O)C4)N(C)C(=O)[C@H](Cc2cccc(O)c2)NC1=O [RB-0005984] (cyclo([NMeK](DOTA(Lu))Y[dW][Ala(piperidin-4-yl)]T[mTyr])) | 8.48 to 9.00 |  |
| C[C@@H](O)[C@@H]1NC(=O)[C@H](CC2CCNCC2)NC(=O)[C@@H]([C@@H](C)c2c[nH]c3ccccc23)NC(=O)[C@H](Cc2ccc(O)cc2)NC(=O)[C@H](CCCCNC(=O)CN2CCN3CCN4CCN(CC2)CC(=O)[O][Lu]([O]C(=O)C3)[O]C(=O)C4)N(C)C(=O)[C@H](Cc2cccc(O)c2)NC1=O [RB-0005985] (cyclo([NMeK](DOTA(Lu))Y[dTrp(βS-Me)][Ala(piperidin-4-yl)]T[mTyr])) | > 9.00 |  |
| C[C@@H](O)[C@@H]1NC(=O)[C@H](CC2CCNCC2)NC(=O)[C@@H]([C@@H](C)c2c[nH]c3ccccc23)NC(=O)[C@H](Cc2ccc(O)cc2)NC(=O)[C@H](CCSCC(=O)NCCNC(=O)CN2CCN3CCN4CCN(CC2)CC(=O)[O][Lu]([O]C(=O)C3)[O]C(=O)C4)N(C)C(=O)[C@H](Cc2ccccc2)NC1=O [RB-0005990] (cyclo(F[NMehCys](X17)Y[dTrp(βS-Me)][Ala(piperidin-4-yl)]T)) | > 9.00 |  |
| C[C@@H](O)[C@@H]1NC(=O)[C@H](CC2CCNCC2)NC(=O)[C@H](Cc2c[nH]c3ccccc23)NC(=O)[C@H](Cc2ccc(O)cc2)NC(=O)[C@H](CCSCC(=O)NCCOCCOCCOCCNC(=O)CN2CCN3CCN4CCN(CC2)CC(=O)[O][Lu]([O]C(=O)C3)[O]C(=O)C4)N(C)C(=O)[C@H](Cc2ccccc2)NC1=O [RB-0005992] (cyclo(F[NMehCys](X6)YW[Ala(piperidin-4-yl)]T)) | 8.00 to 8.48 |  |
| C[C@@H](O)[C@@H]1NC(=O)[C@H](CC2CCNCC2)NC(=O)[C@@H]([C@@H](C)c2c[nH]c3ccccc23)NC(=O)[C@H](Cc2ccc(O)cc2)NC(=O)[C@H](CCSCC(=O)NCCOCCOCCOCCNC(=O)CN2CCN3CCN4CCN(CC2)CC(=O)[O][Lu]([O]C(=O)C3)[O]C(=O)C4)N(C)C(=O)[C@H](Cc2ccccc2)NC1=O [RB-0005994] (cyclo(F[NMehCys](X6)Y[dTrp(βS-Me)][Ala(piperidin-4-yl)]T)) | > 9.00 |  |
| C[C@@H](O)[C@@H]1NC(=O)[C@H](Cc2ccc(CN)cc2)NC(=O)[C@@H]([C@@H](C)c2c[nH]c3ccccc23)NC(=O)[C@H](Cc2ccc(O)cc2)NC(=O)[C@H](CCSCC(=O)NCCCCCCNC(=O)CN2CCN3CCN4CCN(CC2)CC(=O)[O][Lu]([O]C(=O)C3)[O]C(=O)C4)N(C)C(=O)[C@H](Cc2ccccc2)NC1=O [RB-0006009] (cyclo(F[NMehCys](DOTA(Lu)NH(CH2)6NHCOCH2)Y[dTrp(βS-Me)][Phe(4-CH2NH2)]T)) | 8.48 to 9.00 |  |
| CC(C)NCCCC[C@@H]1NC(=O)[C@@H]([C@@H](C)c2c[nH]c3ccccc23)NC(=O)[C@H](Cc2ccc(O)cc2)NC(=O)[C@H](CCSCC(=O)NCCCCCCNC(=O)CN2CCN3CCN4CCN(CC2)CC(=O)[O][Lu]([O]C(=O)C3)[O]C(=O)C4)N(C)C(=O)[C@H](Cc2ccccc2)NC(=O)[C@H]([C@@H](C)O)NC1=O [RB-0006011] (cyclo(F[NMehCys](DOTA(Lu)NH(CH2)6NHCOCH2)Y[dTrp(βS-Me)][Lys(iPr)]T)) | 8.48 to 9.00 |  |
| C[C@H](c1c[nH]c2ccccc12)[C@@H]1NC(=O)[C@H](Cc2ccc(O)cc2)NC(=O)[C@H](CCSCC(=O)NCCCCCCNC(=O)CN2CCN3CCN4CCN(CC2)CC(=O)[O][Lu]([O]C(=O)C3)[O]C(=O)C4)N(C)C(=O)[C@H](Cc2ccccc2)NC(=O)[C@H]([C@@H](C)O)NC(=O)[C@H](CCCCN)NC1=O [RB-0006019] (cyclo(F[NMehCys](DOTA(Lu)NH(CH2)6NHCOCH2)Y[βMeTrp(2S,3R)]KT)) | > 9.00 |  |
| C[C@H](c1c[nH]c2ccccc12)[C@@H]1NC(=O)[C@H](Cc2ccc(O)cc2)NC(=O)[C@H](CCCCNC(=O)CN2CCN3CCN4CCN(CC2)CC(=O)[O][Lu]([O]C(=O)C3)[O]C(=O)C4)N(C)C(=O)[C@H](Cc2ccccc2)NC(=O)[C@H]([C@@H](C)O)NC(=O)[C@H](CC2CCNCC2)NC1=O [RB-0006069] (cyclo(F[NMeK](DOTA(Lu))Y[βMeTrp(2S,3R)][Ala(piperidin-4-yl)]T)) | 8.00 to 8.48 |  |
| Cc1cccc2[nH]cc(C[C@H]3NC(=O)[C@H](Cc4ccc(O)cc4)NC(=O)[C@H](CCSCC(=O)NCCCCCCNC(=O)CN4CCN5CCN6CCN(CC4)CC(=O)[O][Lu]([O]C(=O)C5)[O]C(=O)C6)N(C)C(=O)[C@H](Cc4ccccc4)NC(=O)[C@H]([C@@H](C)O)NC(=O)[C@H](CC4CCNCC4)NC3=O)c12 [RB-0006073] (cyclo(F[NMehCys](DOTA(Lu)NH(CH2)6NHCOCH2)Y[dTrp(4-Me)][Ala(piperidin-4-yl)]T)) | 8.00 to 8.48 |  |
| Cc1ccc2[nH]cc(C[C@H]3NC(=O)[C@H](Cc4ccc(O)cc4)NC(=O)[C@H](CCSCC(=O)NCCCCCCNC(=O)CN4CCN5CCN6CCN(CC4)CC(=O)[O][Lu]([O]C(=O)C5)[O]C(=O)C6)N(C)C(=O)[C@H](Cc4ccccc4)NC(=O)[C@H]([C@@H](C)O)NC(=O)[C@H](CC4CCNCC4)NC3=O)c2c1 [RB-0006074] (cyclo(F[NMehCys](DOTA(Lu)NH(CH2)6NHCOCH2)Y[dTrp(5-Me)][Ala(piperidin-4-yl)]T)) | 8.00 to 8.48 |  |
| C[C@@H](O)[C@@H]1NC(=O)[C@H](CC2CCNCC2)NC(=O)[C@@H](Cc2c[nH]c3ccc(Cl)cc23)NC(=O)[C@H](Cc2ccc(O)cc2)NC(=O)[C@H](CCSCC(=O)NCCCCCCNC(=O)CN2CCN3CCN4CCN(CC2)CC(=O)[O][Lu]([O]C(=O)C3)[O]C(=O)C4)N(C)C(=O)[C@H](Cc2ccccc2)NC1=O [RB-0006075] (cyclo(F[NMehCys](DOTA(Lu)NH(CH2)6NHCOCH2)Y[dTrp(5-Cl)][Ala(piperidin-4-yl)]T)) | 8.48 to 9.00 |  |
| COc1ccc2[nH]cc(C[C@H]3NC(=O)[C@H](Cc4ccc(O)cc4)NC(=O)[C@H](CCSCC(=O)NCCCCCCNC(=O)CN4CCN5CCN6CCN(CC4)CC(=O)[O][Lu]([O]C(=O)C5)[O]C(=O)C6)N(C)C(=O)[C@H](Cc4ccccc4)NC(=O)[C@H]([C@@H](C)O)NC(=O)[C@H](CC4CCNCC4)NC3=O)c2c1 [RB-0006076] (cyclo(F[NMehCys](DOTA(Lu)NH(CH2)6NHCOCH2)Y[dTrp(5-OMe)][Ala(piperidin-4-yl)]T)) |  | SSTR2 Ki: FALSE |
| C[C@@H](O)[C@@H]1NC(=O)[C@H](CC2CCNCC2)NC(=O)[C@@H]([C@@H](C)c2c[nH]c3ccccc23)NC(=O)[C@H](Cc2ccc(O)cc2)NC(=O)[C@H](COCCNC(=O)CN2CCN3CCN4CCN(CC2)CC(=O)[O][Lu]([O]C(=O)C3)[O]C(=O)C4)N(C)C(=O)[C@H](Cc2ccccc2)NC1=O [RB-0006095] (cyclo(F[NMeS](X5)Y[dTrp(βS-Me)][Ala(piperidin-4-yl)]T)) | > 9.00 |  |
| C[C@@H](O)[C@@H]1NC(=O)[C@H](CCC2CNC2)NC(=O)[C@@H]([C@@H](C)c2c[nH]c3ccccc23)NC(=O)[C@H](Cc2ccc(O)cc2)NC(=O)[C@H](CCCCNC(=O)CN2CCN3CCN4CCN(CC2)CC(=O)[O][Lu]([O]C(=O)C3)[O]C(=O)C4)N(C)C(=O)[C@H](Cc2ccccc2)NC1=O [RB-0006128] (cyclo(F[NMeK](DOTA(Lu))Y[dTrp(βS-Me)][X2]T)) | > 9.00 |  |
| COc1ccc(C[C@@H]2NC(=O)[C@H](CCCCNC(=O)CN3CCN4CCN5CCN(CC3)CC(=O)[O][Lu]([O]C(=O)C4)[O]C(=O)C5)N(C)C(=O)[C@H](Cc3ccccc3)NC(=O)[C@H]([C@@H](C)O)NC(=O)[C@H](CC3CCNCC3)NC(=O)[C@@H]([C@@H](C)c3c[nH]c4ccccc34)NC2=O)cc1 [RB-0006139] (cyclo(F[NMeK](DOTA(Lu))Y(Me)[dTrp(βS-Me)][Ala(piperidin-4-yl)]T)) | 7.00 to 7.48 |  |
